Results on 13 compounds are retold here after patent US7544707B2, “Bicyclic derivatives as PPAR modulators” (Eli Lilly and Company, priority 2003, dated 2009).

The term melting point denotes the temperature, or range, at which the solid turns liquid. `Cc1cc(SCc2cccc3nn(-c4ccc(C(F)(F)F)cc4)cc23)ccc1OCC(=O)O` [Example 26, 2-Methyl-4-[2-(4-trifluoromethylphenyl)-2H-indazol-4-ylmethylsulfanyl]phenoxyacetic Acid]: the melting point was in the range of 105 to 108 °C.

For `CC(Oc1ccc(OC(C)(C)C(=O)O)cc1)c1cccc2nn(-c3ccc(C(F)(F)F)cc3)cc12` (racemic) [Example 75, (+/−)-2-Methyl-2-(4-{1-[2-(4-trifluoromethylphenyl)-2H-indazol-4-yl]ethoxy}phenoxy)propionic Acid], the melting point was 86 to 88 °C.

Compound `Cc1cc(SCc2cccc3cn(-c4ccc(C(F)(F)F)cc4)nc23)ccc1CCC(=O)O` [Example 2, 3-{2-Methyl-4-[2-(4-trifluoromethylphenyl)-2H-indazol-7-ylmethylsulfanyl]phenyl}propionic Acid] yielded a melting point of 88 to 90 °C.

Compound `CCc1cc(SC(C)(C)c2cccc3cn(-c4ccc(C(F)(F)F)cc4)nc23)ccc1OCC(=O)O` [Example 16, 2-Ethyl-4-{1-methyl-1-[2-(4-trifluoromethylphenyl)-2H-indazol-7-yl]ethylsulfanyl}phenoxyacetic Acid] returned a melting point of 114 to 116 °C.

With `CC(Sc1ccc(OC(C)(C)C(=O)O)cc1)c1ccc2cn(-c3ccc(C(F)(F)F)cc3)nc2c1` (racemic) [Example 59, (+/−)-2-Methyl-2-(4-{1-[2-(4-trifluoromethylphenyl)-2H-indazol-6-yl]ethylsulfanyl}phenoxy)propionic Acid], the melting point is 130 to 132 °C.

For the compound `CC(Oc1ccc(OC(C)(C)C(=O)O)cc1)c1cccc2c1cnn2-c1ccc(C(F)(F)F)cc1` (racemic) [Example 85, (+/−)-2-Methyl-2-(4-{1-[1-(4-trifluoromethylphenyl)-1H-indazol-4-yl]ethoxy}phenoxy)propionic Acid], the melting point was in the range of 99 to 102 °C.

`Cc1cc(OC(C)c2cccc3cn(-c4ccc(C(F)(F)F)cc4)nc23)ccc1OC(C)(C)C(=O)O` (racemic) [Example 40, (+/−)-2-Methyl-2-(2-methyl-4-{1-[2-(4-trifluoromethylphenyl)-2H-indazol-7-yl]ethoxy}phenoxy)propionic Acid]: the melting point lay within 139 to 141 °C.

For `Cc1cc(SCCc2cccc3cn(-c4ccc(C(F)(F)F)cc4)nc23)ccc1OCC(=O)O` [Example 46, (2-Methyl-4-{2-[2-(4-trifluoromethylphenyl)-2H-indazol-7-yl]ethylsulfanyl}phenoxy)acetic Acid], the melting point was in the range of 137 to 139 °C.

`CC(C)(Oc1ccc(OCc2cccc3c2cnn3-c2ccc(C(F)(F)F)cc2)cc1)C(=O)O` [Example 81, 2-Methyl-2-{4-[1-(4-trifluoromethylphenyl)-1H-indazol-4-ylmethoxy]phenoxy}propionic Acid] yielded a melting point of 128 to 130 °C.

In the case of `CC(C)(Oc1ccc(COCc2ccc3cn(-c4ccc(C(F)(F)F)cc4)nc3c2)cc1)C(=O)O` [Example 56, 2-Methyl-2-{4-[2-(4-trifluoromethylphenyl)-2H-indazol-6-ylmethoxymethyl]phenoxy}propionic Acid], the melting point lay in the range of 129 to 131 °C.

As for `CC(C)(Oc1ccc(OC(CCC(F)(F)F)c2cccc3c2cnn3-c2ccc(C(F)(F)F)cc2)cc1)C(=O)O` (racemic) [Example 90, (+/−)-2-Methyl-2-(4-{4,4,4-trifluoro-1-[1-(4-trifluoromethylphenyl)-1H-indazol-4-yl]butoxy}phenoxy)propionic Acid], the melting point lay within 175 to 180 °C.

Consider `CC(C)(Oc1ccc(OCc2cccc3cnn(-c4ccc(C(F)(F)F)cc4)c23)cc1)C(=O)O` [Example 100, 2-Methyl-1-2-{4-[1-(4-trifluoromethylphenyl)-1H-indazol-7-ylmethoxy]phenoxy}propionic Acid], for which the melting point fell in the range of 146 to 149 °C.

For `Cc1cc(OC(C)c2cccc3cn(-c4ccc(C(F)(F)F)cc4)nc23)ccc1CCC(=O)O` (racemic) [Example 12, (+/−)-3-(2-Methyl-4{1-[2-(4-trifluoromethylphenyl)-2H-indazol-7yl]ethoxy}phenyl)propionic Acid], the melting point lay in the range of 66 to 68 °C.
